# Patent US12686674B2, “Crystal form of compound represented by formula I, and preparation therefor and application thereof” (Shanghai Zhimeng Biopharma, Inc., priority 2021, dated 2026)
# Legend:
# Type in all cases: physicochemical
# [1] = Rough solubility at room temperature
# Method: Specifically, ~2 mg of the starting material was weighed in an HPLC vial, the solvents in the following table were added step by step (50/50/200/700 μL) until the solid is completely dissolved or the total volume reaches 1.0 mL.
# [2] = Influencing factor test of crystal form A (high temperature, high humidity, light); details: High temperature (60° C.), Day 30
# [3] = Solid-state stability, placed open one and two weeks (HPLC purity, XRPD)
# Method: Purity tests (HPLC) and crystal form detection (XRPD) were performed on starting samples, samples stored for one week and two weeks.
# [4] = Influencing factor test of crystal form A (high temperature, high humidity, light)
# From the text: Sample purity and solubility data were collected using an Agilent model 1260 high-performance liquid chromatograph (equipped with DAD detector). [table]
# [5] = High humidity (25° C., 90% ± 5%), Day 5
# [6] = High humidity (25° C., 90% ± 5%), Day 10
# [7] = High humidity (25° C., 90% ± 5%), Day 30
# [8] = High temperature (60° C.), Day 5
# [9] = High temperature (60° C.), Day 10
# [10] = High temperature (60° C.), Day 30
# [11] = High temperature and humidity (60° C., 75% ± 5%), Day 5
# [12] = High temperature and humidity (60° C., 75% ± 5%), Day 10
# [13] = High temperature and humidity (60° C., 75% ± 5%), Day 30
# [14] = Light exposure (25° C., 4500 Lx ± 500 Lx, NUV 0.9 w/m^2), bare sample, Day 5
# [15] = Light exposure (25° C., 4500 Lx ± 500 Lx, NUV 0.9 w/m^2), bare sample, Day 10
# [16] = Light exposure (25° C., 4500 Lx ± 500 Lx, NUV 0.9 w/m^2), bare sample, Day 30
smiles,measurement,setting,value
O=C1CO[C@H](c2cn(-c3ccc(Br)cc3)nc2-c2ccc(F)cc2)N1CCc1ccc2[nH]c(=O)[nH]c2c1 [Crystal form A],solubility,"[1]; organic solvent or mixture, thermodynamic from solid, 1,4-Dioxane",6.9 to 20.7 mg/mL
same,solubility,"[1]; organic solvent or mixture, thermodynamic from solid, 2-MeTHF",6.9 to 20.7 mg/mL
same,solubility,"[1]; organic solvent or mixture, thermodynamic from solid, ACN",< 2.1 mg/mL
same,solubility,"[1]; organic solvent or mixture, thermodynamic from solid, Acetone",6.8 to 20.3 mg/mL
same,solubility,"[1]; organic solvent or mixture, thermodynamic from solid, CH3COOH",> 41.8 mg/mL
same,solubility,"[1]; organic solvent or mixture, thermodynamic from solid, CPME",< 2 mg/mL
same,solubility,"[1]; organic solvent or mixture, thermodynamic from solid, DCM",< 2.1 mg/mL
same,solubility,"[1]; organic solvent or mixture, thermodynamic from solid, DMF",> 41.2 mg/mL
same,solubility,"[1]; organic solvent or mixture, thermodynamic from solid, DMSO",> 40.4 mg/mL
same,solubility,"[1]; organic solvent or mixture, thermodynamic from solid, EtOAc",< 2.1 mg/mL
same,solubility,"[1]; organic solvent or mixture, thermodynamic from solid, EtOH",2 to 6.7 mg/mL
same,solubility,"[1]; organic solvent or mixture, thermodynamic from solid, IPA",< 2.1 mg/mL
same,solubility,"[1]; organic solvent or mixture, thermodynamic from solid, IPAc",< 2 mg/mL
same,solubility,"[1]; organic solvent or mixture, thermodynamic from solid, MEK",2 to 6.6 mg/mL
same,solubility,"[1]; organic solvent or mixture, thermodynamic from solid, MIBK",< 2 mg/mL
same,solubility,"[1]; organic solvent or mixture, thermodynamic from solid, MTBE",< 2 mg/mL
same,solubility,"[1]; organic solvent or mixture, thermodynamic from solid, MeOH",2 to 6.6 mg/mL
same,solubility,"[1]; organic solvent or mixture, thermodynamic from solid, THF",> 40.4 mg/mL
same,solubility,"[1]; organic solvent or mixture, thermodynamic from solid, Toluene",< 2 mg/mL
same,solubility,"[1]; organic solvent or mixture, thermodynamic from solid, n-Heptane",< 2 mg/mL
same,solubility,"[1]; water, thermodynamic from solid, H2O",< 2.1 mg/mL
same,Moisture (KF),[2],0.09%
same,Purity(Area %),"[3]; 1 week, 25° C./60% RH, open",99.08 Area %
same,Purity(Area %),"[3]; 1 week, 40° C./75% RH, open",99.07 Area %
same,Purity(Area %),"[3]; 1 week, 60° C., open",99.09 Area %
same,change in Crystal form (XRPD),"[3]; 1 week, 25° C./60% RH, 40° C./75% RH, 60° C.",Unchanged
same,Purity(Area %),"[3]; 2 week, 25° C./60% RH, open",99.12 Area %
same,Purity(Area %),"[3]; 2 week, 40° C./75% RH, open",99.14 Area %
same,Purity(Area %),"[3]; 2 week, 60° C., open",99.13 Area %
same,change in Crystal form (XRPD),"[3]; 2 week, 25° C./60% RH, 40° C./75% RH, 60° C.",Unchanged
same,Purity(Area %),[3]; Starting sample,99.12 Area %
same,"Content (HPLC, calculated by anhydrous substance)","[4]; Day 0, Table M-2",99.2%
same,Moisture (KF),"[4]; Day 0, Table M-2",0.11%
same,Other single impurity RRT~1.10 (HPLC),"[4]; Day 0, Table M-2",0:0.14%
same,Other single impurity RRT~1.23 (HPLC),"[4]; Day 0, Table M-2",3:0.03%
same,Other single impurity RRT~1.44 (HPLC),"[4]; Day 0, Table M-2",4:0.03%
same,Other single impurity RRT~1.53 (HPLC),"[4]; Day 0, Table M-2",3:0.03%
same,Other single impurity RRT~1.87 (HPLC),"[4]; Day 0, Table M-2",7:0.03%
same,Total impurities (HPLC),"[4]; Day 0, Table M-2",0.26%
same,"Content (HPLC, calculated by anhydrous substance)","[4]; Day 0, Table M-3",99.8%
same,Moisture (KF),"[4]; Day 0, Table M-3",0.11%
same,Other single impurity RRT~1.10 (HPLC),"[4]; Day 0, Table M-3",0:0.13%
same,Other single impurity RRT~1.24 (HPLC),"[4]; Day 0, Table M-3",4:0.03%
same,Other single impurity RRT~1.48 (HPLC),"[4]; Day 0, Table M-3",8:0.03%
same,Other single impurity RRT~1.58 (HPLC),"[4]; Day 0, Table M-3",8:0.03%
same,Other single impurity RRT~1.97 (HPLC),"[4]; Day 0, Table M-3",7:0.03%
same,Total impurities (HPLC),"[4]; Day 0, Table M-3",0.25%
same,"Content (HPLC, calculated by anhydrous substance)",[4]; [5],99.4%
same,Moisture (KF),[4]; [5],0.21%
same,Other single impurity RRT~1.10 (HPLC),[4]; [5],0:0.14%
same,Other single impurity RRT~1.24 (HPLC),[4]; [5],4:0.04%
same,Other single impurity RRT~1.48 (HPLC),[4]; [5],8:0.03%
same,Other single impurity RRT~1.59 (HPLC),[4]; [5],9:0.03%
same,Other single impurity RRT~1.92 (HPLC),[4]; [5],2:0.03%
same,Other single impurity RRT~1.97 (HPLC),[4]; [5],7:0.03%
same,Total impurities (HPLC),[4]; [5],0.30%
same,"Content (HPLC, calculated by anhydrous substance)",[4]; [6],99.7%
same,Moisture (KF),[4]; [6],0.23%
same,Other single impurity RRT~1.10 (HPLC),[4]; [6],0:0.13%
same,Other single impurity RRT~1.24 (HPLC),[4]; [6],4:0.03%
same,Other single impurity RRT~1.46 (HPLC),[4]; [6],6:0.03%
same,Other single impurity RRT~1.56 (HPLC),[4]; [6],6:0.03%
same,Other single impurity RRT~1.88 (HPLC),[4]; [6],8:0.03%
same,Other single impurity RRT~1.93 (HPLC),[4]; [6],3:0.03%
same,Total impurities (HPLC),[4]; [6],0.28%
same,"Content (HPLC, calculated by anhydrous substance)",[4]; [7],101.3%
same,Moisture (KF),[4]; [7],0.10%
same,Other single impurity RRT~1.10 (HPLC),[4]; [7],0:0.15%
same,Other single impurity RRT~1.24 (HPLC),[4]; [7],4:0.03%
same,Other single impurity RRT~1.48 (HPLC),[4]; [7],8:0.03%
same,Other single impurity RRT~1.59 (HPLC),[4]; [7],9:0.03%
same,Other single impurity RRT~1.92 (HPLC),[4]; [7],2:0.03%
same,Other single impurity RRT~1.97 (HPLC),[4]; [7],7:0.03%
same,Total impurities (HPLC),[4]; [7],0.30%
same,"Content (HPLC, calculated by anhydrous substance)",[4]; [8],99.1%
same,Moisture (KF),[4]; [8],0.09%
same,Other single impurity RRT~1.10 (HPLC),[4]; [8],0:0.13%
same,Other single impurity RRT~1.24 (HPLC),[4]; [8],4:0.04%
same,Other single impurity RRT~1.48 (HPLC),[4]; [8],8:0.03%
same,Other single impurity RRT~1.59 (HPLC),[4]; [8],9:0.03%
same,Other single impurity RRT~1.92 (HPLC),[4]; [8],2:0.03%
same,Other single impurity RRT~1.97 (HPLC),[4]; [8],7:0.03%
same,Total impurities (HPLC),[4]; [8],0.29%
same,"Content (HPLC, calculated by anhydrous substance)",[4]; [9],99.8%
same,Moisture (KF),[4]; [9],0.09%
same,Other single impurity RRT~1.10 (HPLC),[4]; [9],0:0.14%
same,Other single impurity RRT~1.24 (HPLC),[4]; [9],4:0.03%
same,Other single impurity RRT~1.46 (HPLC),[4]; [9],6:0.03%
same,Other single impurity RRT~1.56 (HPLC),[4]; [9],6:0.03%
same,Other single impurity RRT~1.93 (HPLC),[4]; [9],3:0.03%
same,Total impurities (HPLC),[4]; [9],0.26%
same,"Content (HPLC, calculated by anhydrous substance)",[4]; [10],100.9%
same,Other single impurity RRT~1.10 (HPLC),[4]; [10],0:0.14%
same,Other single impurity RRT~1.24 (HPLC),[4]; [10],4:0.03%
same,Other single impurity RRT~1.48 (HPLC),[4]; [10],8:0.03%
same,Other single impurity RRT~1.58 (HPLC),[4]; [10],8:0.03%
same,Other single impurity RRT~1.92 (HPLC),[4]; [10],2:0.03%
same,Other single impurity RRT~1.97 (HPLC),[4]; [10],7:0.03%
same,Total impurities (HPLC),[4]; [10],0.29%
same,"Content (HPLC, calculated by anhydrous substance)",[4]; [11],99.6%
same,Moisture (KF),[4]; [11],0.12%
same,Other single impurity RRT~1.10 (HPLC),[4]; [11],0:0.14%
same,Other single impurity RRT~1.24 (HPLC),[4]; [11],4:0.03%
same,Other single impurity RRT~1.46 (HPLC),[4]; [11],6:0.03%
same,Other single impurity RRT~1.56 (HPLC),[4]; [11],6:0.03%
same,Other single impurity RRT~1.88 (HPLC),[4]; [11],8:0.03%
same,Other single impurity RRT~1.93 (HPLC),[4]; [11],3:0.03%
same,Total impurities (HPLC),[4]; [11],0.29%
same,"Content (HPLC, calculated by anhydrous substance)",[4]; [12],101.3%
same,Moisture (KF),[4]; [12],0.14%
same,Other single impurity RRT~1.10 (HPLC),[4]; [12],0:0.14%
same,Other single impurity RRT~1.24 (HPLC),[4]; [12],4:0.03%
same,Other single impurity RRT~1.48 (HPLC),[4]; [12],8:0.03%
same,Other single impurity RRT~1.59 (HPLC),[4]; [12],9:0.03%
same,Other single impurity RRT~1.97 (HPLC),[4]; [12],7:0.03%
same,Total impurities (HPLC),[4]; [12],0.26%
same,"Content (HPLC, calculated by anhydrous substance)",[4]; [13],99.3%
same,Moisture (KF),[4]; [13],0.14%
same,Other single impurity RRT~1.10 (HPLC),[4]; [13],0:0.14%
same,Other single impurity RRT~1.24 (HPLC),[4]; [13],4:0.03%
same,Other single impurity RRT~1.48 (HPLC),[4]; [13],8:0.03%
same,Other single impurity RRT~1.58 (HPLC),[4]; [13],8:0.03%
same,Other single impurity RRT~1.96 (HPLC),[4]; [13],6:0.03%
same,Total impurities (HPLC),[4]; [13],0.26%
same,"Content (HPLC, calculated by anhydrous substance)",[4]; [14],99.6%
same,Moisture (KF),[4]; [14],0.10%
same,Other single impurity RRT~1.10 (HPLC),[4]; [14],0:0.14%
same,Other single impurity RRT~1.24 (HPLC),[4]; [14],4:0.03%
same,Other single impurity RRT~1.46 (HPLC),[4]; [14],6:0.03%
same,Other single impurity RRT~1.56 (HPLC),[4]; [14],6:0.03%
same,Other single impurity RRT~1.93 (HPLC),[4]; [14],3:0.03%
same,Total impurities (HPLC),[4]; [14],0.26%
same,"Content (HPLC, calculated by anhydrous substance)",[4]; [15],100.7%
same,Moisture (KF),[4]; [15],0.10%
same,Other single impurity RRT~1.10 (HPLC),[4]; [15],0:0.14%
same,Other single impurity RRT~1.24 (HPLC),[4]; [15],4:0.03%
same,Other single impurity RRT~1.48 (HPLC),[4]; [15],8:0.03%
same,Other single impurity RRT~1.59 (HPLC),[4]; [15],9:0.03%
same,Other single impurity RRT~1.97 (HPLC),[4]; [15],7:0.03%
same,Total impurities (HPLC),[4]; [15],0.26%
same,"Content (HPLC, calculated by anhydrous substance)",[4]; [16],99.8%
same,Moisture (KF),[4]; [16],0.10%
same,Other single impurity RRT~1.10 (HPLC),[4]; [16],0:0.13%
same,Other single impurity RRT~1.24 (HPLC),[4]; [16],4:0.03%
same,Other single impurity RRT~1.48 (HPLC),[4]; [16],8:0.03%
same,Other single impurity RRT~1.58 (HPLC),[4]; [16],8:0.03%
same,Other single impurity RRT~1.97 (HPLC),[4]; [16],7:0.03%
same,Total impurities (HPLC),[4]; [16],0.25%
